According to patent publication US11560395B2, “Azithromycin derivatives containing a phosphonium ion as anticancer agents” (Rising Tide Foundation, priority 2017, dated 2023):

Test system: MDA-231 cancer cells
Experiment: Inhibition of proliferation assay, cell confluence (IncuCyte live cell imaging)
Format: cell-based
Conditions: MDA-231 cells, concentration 10 uM; relative confluence normalised to time zero, images every 3 h over 4-5 d
Description: Inhibition of Proliferation Assay Cell Confluence The confluence value is a surrogate for cell proliferation and growth. The value is expressed as a percent confluence, which represents the fraction of culture dish-surface that is occupied by cells. As the number of cells in the dish increases over time due to proliferation, so will their coverage of that surface increase. Expansion of the cell population on the cell culture-dish surface and confluence have mostly a linear relationship until the cells on the plate surface begin to reach saturation or maximum density. Confluence is determined based on image analysis. Image based software can identify objects in the image field base on changes to pixel density in a grey scale image. The software can then assign a mask to those pixels within the object. Objects can be ‘gated’ out based on size and shape. To determine cell confluence, images of cells are first masked as objects. The surface area of the image that is masked is measured and compared to the total surface area of the culture dish surface to obtain a percent confluence. MDA-231 cancer cells were obtained from ATCC. Cells were cultured in Dulbecco's Modified Eagle Medium (DMEM) supplemented with 10% Fetal Bovine Serum (FBS), 2 mM Glutamax, 1 mM Non Essential Amino Acid (NEAA) solution and 1 mM sodium pyruvate. Compounds were dissolved in DMSO at 10 mM and diluted in cellular medium and tested at 10 μM (micromolar). Final DMSO concentrations were <0.1%. Images were acquired with an IncuCyte Live Cell Imaging microscopy (Essen Bioscience) at every 3 h under cell culture conditions with 10× objective over 4-5 d. Cell confluence was calculated from one field of view per well using the IncuCyte in-built algorithm. Relative confluence values were obtained by normalising each value to the time zero value in each sample.

| Compound | % Confluence [%] |
| --- | --- |
| CC[C@H]1OC(=O)[C@H](C)[C@@H](O[C@H]2C[C@@](C)(OC)[C@@H](O)[C@H](C)O2)[C@H](C)[C@@H](O[C@@H]2O[C@H](C)C[C@H](N(C)C)[C@H]2OC(C)=O)[C@](C)(O)C[C@@H](C)CN(C)[C@H](C)[C@@H](OC(=O)NCCCCCCCCCC[P+](c2ccccc2)(c2ccccc2)c2ccccc2)[C@]1(C)O.[Br-] [Example 18, (2S,3R,4S,6R)-4-(dimethylamino)-2-{[(2R,3R,4R,5R,8R,10R,11R,12S,13S,14R)-2-ethyl-3,10-dihydroxy-13-{[(2R,4R,5S,6S)-5-hydroxy-4-methoxy-4,6-dimethyloxan-2-yl]oxy}-3,5,6,8,10,12,14-heptamethyl-15-oxo-4-({[10-(triphenylphosphosphoniumyl)decyl]carbamoyl}oxy)-1-oxa-6-azacyclopentadecan-11-yl]oxy}-6-methyloxan-3-yl acetate bromide] | 9.6 |
| CC[C@H]1OC(=O)[C@H](C)[C@@H](O[C@H]2C[C@@](C)(OC)[C@@H](O)[C@H](C)O2)[C@H](C)[C@@H](O[C@@H]2O[C@H](C)C[C@H](N(C)C)[C@H]2O)[C@](C)(O)C[C@@H](C)CN(C)[C@H](C)[C@@H](OC(=O)NCCCCCCCCCC[P+](c2ccccc2)(c2ccccc2)c2ccccc2)[C@]1(C)O.[Br-] [Example 19, (2R,3R,4R,5R,8R,10R,11R,12S,13S,14R)-11-{[(2S,3R,4S,6R)-4-(dimethylamino)-3-hydroxy-6-methyloxan-2-yl]oxy}-2-ethyl-3,10-dihydroxy-13-{[(2R,4R,5S,6S)-5-hydroxy-4-methoxy-4,6-dimethyloxan-2-yl]oxy}-3,5,6,8,10,12,14-heptamethyl-15-oxo-1-oxa-6-azacyclopentadecan-4-yl N-[10-(triphenylphosphoniumyl)decyl]carbamate bromide] | 9.7 |
| CC[C@H]1OC(=O)[C@H](C)[C@@H](O[C@H]2C[C@@](C)(OC)[C@@H](O)[C@H](C)O2)[C@H](C)[C@@H](O[C@@H]2O[C@H](C)C[C@H](N(C)C)[C@H]2O)[C@](C)(O)C[C@@H](C)CN(C)[C@H](C)[C@@H](OC(=O)NCCCCCCCC[P+](c2ccccc2)(c2ccccc2)c2ccccc2)[C@]1(C)O.[Br-] [Example 20, (2R,3R,4R,5R,8R,10R,11R,12S,13S,14R)-11-{[(2S,3R,4S,6R)-4-(dimethylamino)-3-hydroxy-6-methyloxan-2-yl]oxy}-2-ethyl-3,10-dihydroxy-13-{[(2R,4R,5S,6S)-5-hydroxy-4-methoxy-4,6-dimethyloxan-2-yl]oxy}-3,5,6,8,10,12,14-heptamethyl-15-oxo-1-oxa-6-azacyclopentadecan-4-yl N-[8-(triphenylphosphoniumyl)octyl]carbamate bromide] | 13.5 |
| CC[C@H]1OC(=O)[C@H](C)[C@@H](O)[C@H](C)[C@@H](O[C@@H]2O[C@H](C)C[C@H](N(C)C)[C@H]2O)[C@](C)(O)C[C@@H](C)CN(C(=O)CCCCCCCCCCCCC[P+](c2ccccc2)(c2ccccc2)c2ccccc2)[C@H](C)[C@@H](O)[C@]1(C)O [Example 21, {14-[(2R,3S,4R,5R,8R,10R,11R,12S,13S,14R)-11-{[(2S,3R,4S,6R)-4-(dimethylamino)-3-hydroxy-6-methyloxan-2-yl]oxy}-2-ethyl-3,4,10,13-tetrahydroxy-3,5,8,10,12,14-hexamethyl-15-oxo-1-oxa-6-azacyclopentadecan-6-yl]-14-oxotetradecyl}triphenylphosphonium hexafluorophosphate(V)] | 8 |
| CC[C@H]1OC(=O)[C@H](C)[C@@H](O[C@H]2C[C@@](C)(OC)[C@@H](O)[C@H](C)O2)[C@H](C)[C@@H](O[C@@H]2O[C@H](C)C[C@H](N(C)C)[C@H]2O)[C@](C)(O)C[C@@H](C)CN(CCCCCC(=O)N(C)CC[P+](c2ccccc2)(c2ccccc2)c2ccccc2)[C@H](C)[C@@H](O)[C@]1(C)O.[Br-] [Example 22] | 102.7 |
| CC[C@H]1OC(=O)[C@H](C)[C@@H](O[C@H]2C[C@@](C)(OC)[C@@H](O)[C@H](C)O2)[C@H](C)[C@@H](O[C@@H]2O[C@H](C)C[C@H](N(C)C)[C@H]2O)[C@](C)(O)C[C@@H](C)CN(C(=O)CCOCCOCC[P+](c2ccccc2)(c2ccccc2)c2ccccc2)[C@H](C)[C@@H](O)[C@]1(C)O.[Br-] [Example 23, [2-(2-{3-[(2R,3S,4R,5R,8R,10R,11R,12S,13S,14R)-11-{[(2S,3R,4S,6R)-4-(dimethylamino)-3-hydroxy-6-methyloxan-2-yl]oxy}-2-ethyl-3,4,10-trihydroxy-13-{[(2R,4R,5S,6S)-5-hydroxy-4-methoxy-4,6-dimethyloxan-2-yl]oxy}-3,5,6,8,10,12,14-hexamethyl-15-oxo-1-oxa-6-azacyclopentadecan-6-yl]-3-oxopropoxy}ethoxy)ethyl]triphenylphosphonium bromide] | 118 |
| CC[C@H]1OC(=O)[C@H](C)[C@@H](O[C@H]2C[C@@](C)(OC)[C@@H](O)[C@H](C)O2)[C@H](C)[C@@H](O[C@@H]2O[C@H](C)C[C@H](N(C)C)[C@H]2O)[C@](C)(O)C[C@@H](C)CN(C(=O)CCCCN(C)CC[P+](c2ccccc2)(c2ccccc2)c2ccccc2)[C@H](C)[C@@H](O)[C@]1(C)O.[Br-] [Example 24, [2-({5-[(2R,3S,4R,5R,8R,10R,11R,12S,13S,14R)-11-{[(2S,3R,4S,6R)-4-(dimethylamino)-3-hydroxy-6-methyloxan-2-yl]oxy}-2-ethyl-3,4,10-trihydroxy-13-{[(2R,4R,5S,6S)-5-hydroxy-4-methoxy-4,6-dimethyloxan-2-yl]oxy}-3,5,6,8,10,12,14-hexamethyl-15-oxo-1-oxa-6-azacyclopentadecan-6-yl]-5-oxopentyl}(methyl)amino)ethyl]triphenylphosphonium bromide] | 49.1 |
| CC[C@H]1OC(=O)[C@H](C)[C@@H](O[C@H]2C[C@@](C)(OC)[C@@H](O)[C@H](C)O2)[C@H](C)[C@@H](O[C@@H]2O[C@H](C)C[C@H](N(C)C)[C@H]2O)[C@](C)(O)C[C@@H](C)CN(C(=O)CCCCCCCCCC[P+](c2ccccc2)(c2ccccc2)c2ccccc2)[C@H](C)[C@@H](O)[C@]1(C)O.[Cl-] [Example 25, {11-[(2R,3S,4R,5R,8R,10R,11R,12S,13S,14R)-11-{[(2S,3R,4S,6R)-4-(dimethylamino)-3-hydroxy-6-methyloxan-2-yl]oxy}-2-ethyl-3,4,10-trihydroxy-13-{[(2R,4R,5S,6S)-5-hydroxy-4-methoxy-4,6-dimethyloxan-2-yl]oxy}-3,5,8,10,12,14-hexamethyl-15-oxo-1-oxa-6-azacyclopentadecan-6-yl]-11-oxoundecyl}triphenylphosphonium chloride] | 4.4 |
